From patent US10676477B2, “Factor XIa macrocycle inhibitors bearing a non-aromatic P2' group” (BRISTOL-MYERS SQUIBB COMPANY, priority 2015, dated 2020)
pKi: −log10 of the molar value. Read-outs that look alike come from different tables or passages of the source.

Experiments:
[1] = rcm bond, DCE, 50.0 °C
[2] = biological target: T1, human Factor XIa (Homo sapiens, UniProt P03951); assay: Factor XIa enzyme inhibition assay (chromogenic substrate S-2366), Ki; format: biochemical; settings: purified human Factor XIa, substrate S-2366, pH 7.4
T1 construct: purchased Haematologic Technologies
Protocol: (§1) The effectiveness of compounds of the present invention as inhibitors of the coagulation Factors XIa, VIIa, IXa, Xa, XIIa, plasma kallikrein chymotrypsin, trypsin, or thrombin, can be determined using a relevant purified serine protease, respectively, and an appropriate synthetic substrate. The rate of hydrolysis of the chromogenic or fluorogenic substrate by the relevant serine protease was measured both in the absence and presence of compounds of the present invention. […] A decrease in the rate of absorbance or fluorescence change in the presence of inhibitor is indicative of enzyme inhibition. Such methods are known to one skilled in the art. The results of this assay are expressed as the inhibitory constant, Ki.
Factor XIa determinations were made in 50 mM HEPES buffer at pH 7.4 containing 145 mM NaCl, 5 mM KCl, and 0.1% PEG 8000 (polyethylene glycol; JT Baker or Fisher Scientific). Determinations were made using purified human Factor XIa at a final concentration of 25-200 pM (Haematologic Technologies) and the synthetic substrate S-2366 (pyroGlu-Pro-Arg-pNA; CHROMOGENIX® or AnaSpec) at a concentration of 0.0002-0.001 M.
(§2) The Michaelis constant, Km, for substrate hydrolysis by each protease, was determined at 25° C. or 37° C. in the absence of inhibitor. Values of Ki were determined by allowing the protease to react with the substrate in the presence of the inhibitor. Reactions were allowed to go for periods of 20-180 minutes (depending on the protease) and the velocities (rate of absorbance or fluorescence change versus time) were measured. The following relationships were used to calculate Ki values: (Vmax*S)/(Km+S) (vo−vs)/vs=I/(Ki*(1+S/Km)) for a competitive inhibitor with one binding site; or vs/vo=A+((B−A)/(1+(IC50/(I)^n)); and Ki=IC50/(1+S/Km) for a competitive inhibitor where: […]

[3] = biological target: T2, human plasma kallikrein (Homo sapiens, UniProt P03952); assay: Plasma kallikrein enzyme inhibition assay (chromogenic substrate S-2302), Ki; format: biochemical; settings: purified human plasma kallikrein, substrate S-2302, pH 7.5
T2 construct: purchased Enzyme Research Laboratories
Protocol: as §1
Plasma kallikrein determinations were made in 0.1 M sodium phosphate buffer at a pH of 7.5 containing 0.1-0.2 M sodium chloride and 0.5% PEG 8000. Determinations were made using purified human plasma kallikrein (Enzyme Research Laboratories) at a final assay concentration of 200 pM and the synthetic substrate S-2302 (H-(D)-Pro-Phe-Arg-pNA; CHROMOGENIX®) at a concentration of 0.00008-0.0004 M.
as §2

T1 sequence (P03951 388-625 limits assumed): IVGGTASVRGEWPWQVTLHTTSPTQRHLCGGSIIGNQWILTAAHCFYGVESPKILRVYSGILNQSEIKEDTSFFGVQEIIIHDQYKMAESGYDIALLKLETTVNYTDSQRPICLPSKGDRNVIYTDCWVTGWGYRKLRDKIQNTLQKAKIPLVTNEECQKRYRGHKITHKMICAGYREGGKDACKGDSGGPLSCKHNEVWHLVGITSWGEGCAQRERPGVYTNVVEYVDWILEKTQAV
T1 sequence (P03951 19-387 partner limits assumed): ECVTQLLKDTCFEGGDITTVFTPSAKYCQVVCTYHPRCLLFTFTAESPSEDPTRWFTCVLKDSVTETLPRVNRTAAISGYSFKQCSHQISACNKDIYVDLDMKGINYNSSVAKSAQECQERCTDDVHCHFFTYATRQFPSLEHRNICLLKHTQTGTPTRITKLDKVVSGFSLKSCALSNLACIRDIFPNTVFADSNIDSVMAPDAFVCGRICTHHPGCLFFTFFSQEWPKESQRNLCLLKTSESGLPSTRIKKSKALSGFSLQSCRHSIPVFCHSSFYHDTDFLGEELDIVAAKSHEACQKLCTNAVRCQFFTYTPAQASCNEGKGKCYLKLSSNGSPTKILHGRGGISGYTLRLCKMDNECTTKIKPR
T2 sequence (P03952 391-638 limits assumed): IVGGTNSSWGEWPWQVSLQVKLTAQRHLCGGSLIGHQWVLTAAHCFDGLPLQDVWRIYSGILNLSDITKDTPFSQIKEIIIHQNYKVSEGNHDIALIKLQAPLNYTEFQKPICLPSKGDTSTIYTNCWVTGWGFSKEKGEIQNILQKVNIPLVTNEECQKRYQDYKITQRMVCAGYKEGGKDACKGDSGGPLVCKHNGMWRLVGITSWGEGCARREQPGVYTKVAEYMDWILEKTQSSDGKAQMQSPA
T2 sequence (P03952 20-390 partner limits assumed): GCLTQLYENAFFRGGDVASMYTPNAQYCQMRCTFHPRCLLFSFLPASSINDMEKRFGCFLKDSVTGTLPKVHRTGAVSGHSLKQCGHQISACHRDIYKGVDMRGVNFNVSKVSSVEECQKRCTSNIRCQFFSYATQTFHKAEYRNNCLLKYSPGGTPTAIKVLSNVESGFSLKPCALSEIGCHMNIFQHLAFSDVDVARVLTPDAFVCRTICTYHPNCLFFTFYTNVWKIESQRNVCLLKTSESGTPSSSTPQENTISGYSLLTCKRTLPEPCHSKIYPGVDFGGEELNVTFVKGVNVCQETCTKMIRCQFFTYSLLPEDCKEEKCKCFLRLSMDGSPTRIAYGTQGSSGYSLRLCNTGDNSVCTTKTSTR

## CC(C)(C)OC(=O)N1CCN2c3cccc(c3)[C@@H](NC(=O)OCc3ccccc3)C/C=C/CCNC(=O)[C@@H]2C1
[1]; from C=CCCNC(=O)[C@@H]1CN(C(=O)OC(C)(C)C)CCN1c1cccc([C@H](CC=C)NC(=O)OCc2ccccc2)c1, 13-membered ring, Grubbs II (40 mol%), 7.55 mM, 5.0 h
  ring closure, isolated yield: 93%

## CC(C)(C)OC(=O)N1CCN2c3cccc(c3)[C@@H](NC(=O)OCc3ccccc3)C/C=C/CCNC(=O)[C@H]2C1
[1]; from C=CCCNC(=O)[C@H]1CN(C(=O)OC(C)(C)C)CCN1c1cccc([C@H](CC=C)NC(=O)OCc2ccccc2)c1, 13-membered ring, Grubbs II (20 mol%), 9.78 mM, 5.0 h
  ring closure, isolated yield: 81%

## CC(C)(C)OC(=O)N1CCN2c3cccc(c3)[C@@H](NC(=O)OCc3ccccc3)C/C=C/CNC(=O)[C@H]2C1
[1]; from C=CCNC(=O)[C@H]1CN(C(=O)OC(C)(C)C)CCN1c1cccc([C@H](CC=C)NC(=O)OCc2ccccc2)c1, 12-membered ring, Grubbs II (20 mol%), 9.1 mM, 5.0 h
  ring closure, isolated yield: 38.6%

## CC(C)(C)OC(=O)NC[C@H]1Nc2cccc(c2)[C@@H](NC(=O)OCc2ccccc2)C/C=C/CCNC1=O
[1]; from C=CCCNC(=O)[C@@H](CNC(=O)OC(C)(C)C)Nc1cccc([C@H](CC=C)NC(=O)OCc2ccccc2)c1, 13-membered ring, Grubbs II (20 mol%)/pTsOH.H2O (1 eq), 10.2 mM, 5.0 h
  ring closure, isolated yield: 37%

## O=C1CN2c3cccc(c3)[C@@H](NC(=O)OCc3ccccc3)CC=CCCNC(=O)C2CN1 (stereo partly shown)
[1]; from C=CCCNC(=O)C1CNC(=O)CN1c1cccc([C@H](CC=C)NC(=O)OCc2ccccc2)c1, 13-membered ring, Grubbs II (20 mol%), 9.0 mM, 2.5 h
  ring closure, isolated yield: 89%

## CC(C)(C)OC(=O)N1CC(=O)N2c3cccc(c3)[C@@H](NC(=O)OCc3ccccc3)CC=CCCNC(=O)[C@H]2C1 (mixture of isomers)
[1]; from C=CCCNC(=O)[C@H]1CN(C(=O)OC(C)(C)C)CC(=O)N1c1cccc([C@H](CC=C)NC(=O)OCc2ccccc2)c1, 13-membered ring, Grubbs II (30 mol%), 9.54 mM, 2.0 h
  ring closure, isolated yield: 76%

## O=C1NCCCCC[C@H](n2cnc(-c3c(-n4cc(Cl)nn4)ccc(Cl)c3F)cc2=O)c2cccc(c2)N2C(=O)CC[C@@H]12 [Example 35, (6S,14S)-14-{4-[3-chloro-6-(4-chloro-1H-1,2,3-triazol-1-yl)-2-fluorophenyl]-6-oxo-1,6-dihydropyrimidin-1-yl}-2,8-diazatricyclo[13.3.1.0^2,6]nonadeca-1(19),15,17-triene-3,7-dione]
[2]
  pKi: 5.29
[3]
  pKi: 4.95

## O=C1NCCCCC[C@H](n2cnc(-c3cc(Cl)ccc3-n3cc(Cl)nn3)cc2=O)c2cccc(c2)N2CCC[C@H]12 [Example 36, (6R,14S)-14-{4-[5-chloro-2-(4-chloro-1H-1,2,3-triazol-1-yl)phenyl]-6-oxo-1,6-dihydropyrimidin-1-yl}-2,8-diazatricyclo[13.3.1.0^2,6]nonadeca-1(19),15,17-trien-7-one]
[2]
  pKi: 8.10
[3]
  pKi: 6.88
